Assays:
Rev-Erb alpha = biological target: T1, Rev-Erb alpha (Homo sapiens, UniProt P20393); assay: M2H (mammalian two-hybrid) cellular activation assay of Rev-Erb alpha; type: cell-based; details: M2H assay, HEK293 cells; for EC50: Gal4-Rev-Erb alpha / VP16-NCoR, luciferase reporter; for Emax: relative to DMSO, at the tested dose, read-out: TOP activation
T1 sequence (P20393 284-614 limits assumed): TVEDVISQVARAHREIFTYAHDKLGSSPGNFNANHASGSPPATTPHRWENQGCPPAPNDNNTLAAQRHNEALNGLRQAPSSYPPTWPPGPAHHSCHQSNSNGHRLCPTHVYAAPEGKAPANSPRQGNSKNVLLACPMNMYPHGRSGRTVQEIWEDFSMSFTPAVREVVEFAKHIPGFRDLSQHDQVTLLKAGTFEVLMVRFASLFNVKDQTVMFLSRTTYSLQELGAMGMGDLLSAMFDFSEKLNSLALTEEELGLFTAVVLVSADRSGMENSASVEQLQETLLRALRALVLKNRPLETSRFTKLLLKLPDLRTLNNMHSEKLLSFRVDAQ
In short: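 Six-point dose-response, 18 h, 37 °C, serum-free, in HEK293 cells carrying a Gal4-RE luciferase reporter with Gal4-Rev-Erb alpha or beta plus VP16-NCoR (corepressor interaction readout). EC50 and TOP activation (%) derived from luminescence across four experiments.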

Structure (SMILES)	melting point [°C]	EC50 (Rev-Erb alpha) [nM]	Emax (Rev-Erb alpha) [%]
Fc1ccc(Oc2ccc3nnc(Cl)n3n2)c(-c2ccc(F)c(F)c2)c1 [Cpd.4-115, 3-chloro-6-(5,3′,4′-trifluorobiphenyl-2-yloxy)-[1,2,4]triazolo[4,3-b]pyridazine]	147.8	100 to 1000	–
Fc1ccc(-c2cc(F)ccc2Oc2ccc3nnc(Cl)n3n2)cc1 [Cpd.4-116, 3-chloro-6-(5,4′-difluorobiphenyl-2-yloxy)-[1,2,4]triazolo[4,3-b]pyridazine]	141.1	100 to 1000	–
Clc1ccc(-c2ccccc2Oc2ccc3nnc(Cl)n3n2)cc1 [Cpd.4-117, 3-chloro-6-(4′-chlorobiphenyl-2-yloxy)-[1,2,4]triazolo[4,3-b]pyridazine]	173	100 to 1000	–
Fc1ccc(Oc2ccc3nnc(Cl)n3n2)c(-c2ccc(Cl)cc2)c1 [Cpd.4-118, 3-chloro-6-(4′-chloro-5-fluorobiphenyl-2-yloxy)-[1,2,4]triazolo[4,3-b]pyridazine]	172	100 to 1000	–
Nc1cccc(-c2cc(F)ccc2Oc2ccc3nnc(Cl)n3n2)c1 [Cpd.4-119, 3-chloro-6-(3′-amino-5-fluorobiphenyl-2-yloxy)-[1,2,4]triazolo[4,3-b]pyridazine]	248.2	1000 to 6000	–
Fc1cccc(-c2cc(F)ccc2Oc2ccc3nnc(Cl)n3n2)c1 [Cpd.4-120, 3-chloro-6-(3′,5-difluorobiphenyl-2-yloxy)-[1,2,4]triazolo[4,3-b]pyridazine]	106.2	100 to 1000	–
FC(F)(F)c1ccc(CN2CCOCC2)c(Oc2ccc3nnc(Cl)n3n2)c1 [Cpd.4-122, 3-chloro-6-(2-(morpholinomethyl)-5-(trifluoromethyl)phenoxy)-[1,2,4]triazolo[4,3-b]pyridazine]	55 to 58	1000 to 6000	–
FC(F)(F)c1ccc(-c2cccnc2)c(Oc2ccc3nnc(C(F)(F)F)n3n2)c1 [Cpd.4-126, 3-(trifluoromethyl)-6-(2-(pyridin-3-yl)-5-(trifluoromethyl)phenoxy)-[1,2,4]triazolo[4,3-b]pyridazine]	69 to 70	1000 to 6000	–
COc1nccc(C)c1-c1ccc(C(F)(F)F)cc1Oc1ccc2nnc(Cl)n2n1 [Cpd.4-130, 3-chloro-6-((2-(2-methoxy-4-methylpyridin-3-yl))-5-(trifluoromethyl)phenoxy)-[1,2,4]triazolo[4,3-b]pyridazine]	129 to 132	1000 to 6000	–
COc1ncc(F)cc1-c1ccc(C(F)(F)F)cc1Oc1ccc2nnc(Cl)n2n1 [Cpd.4-131, 3-chloro-6-((2-(2-methoxy-5-fluoropyridin-3-yl))-5-(trifluoromethyl)phenoxy)-[1,2,4]triazolo[4,3-b]pyridazine]	60 to 68	100 to 1000	–
Cc1cccc(-c2ccccc2Oc2ccc3nnc(Cl)n3n2)c1 [Cpd.4-132, 3-chloro-6-(3′-methylbiphenyl-2-yloxy)-[1,2,4]triazolo[4,3-b]pyridazine]	51	100 to 1000	–
Cc1cccc(-c2cc(F)ccc2Oc2ccc3nnc(Cl)n3n2)c1 [Cpd.4-135, 3-chloro-6-(5-fluoro-3′-methylbiphenyl-2-yloxy)-[1,2,4]triazolo[4,3-b]pyridazine]	94.5 to 95.1	100 to 1000	–
COc1cccc(-c2ccc(C(F)(F)F)cc2Oc2ccc3nnc(C(F)(F)F)n3n2)c1 [Cpd.4-137, 3-(trifluoromethyl)-6-(3′-methoxy-4-(trifluoromethyl)biphenyl-2-yloxy)-[1,2,4]triazolo[4,3-b]pyridazine]	102.5	100 to 1000	–
Oc1cccc(-c2ccc(C(F)(F)F)cc2Oc2ccc3nnc(C(F)(F)F)n3n2)c1 [Cpd.4-138, 3-(trifluoromethyl)-6-(3′-hydroxy-4-(trifluoromethyl)biphenyl-2-yloxy)-[1,2,4]triazolo[4,3-b]pyridazine]	195	1000 to 6000	–
CCOc1ccc(Oc2ccc3nnc(Cl)n3n2)c(-c2ccccc2)c1 [Cpd.4-139, 3-chloro-6-(5-ethoxybiphenyl-2-yloxy)-[1,2,4]triazolo[4,3-b]pyridazine]	89.7 to 90.8	100 to 1000	–
COC(=O)c1cccc(-c2ccccc2Oc2ccc3nnc(Cl)n3n2)c1 [Cpd.4-140, 3-Chloro-6-(3′-(methyloxycarbonyl)biphenyl-2-yloxy)-[1,2,4]triazolo[4,3-b]pyridazine]	236 to 246	> 6000	> 130
Fc1ccc(Oc2ccc3nnc(C(F)(F)F)n3n2)c(-c2ccccc2)c1 [Cpd.4-141, 3-(trifluoromethyl)-6-(5-fluorobiphenyl-2-yloxy)-[1,2,4]triazolo[4,3-b]pyridazine]	85.3 to 87.7	1000 to 6000	–

Structure (SMILES)	melting point [°C]	EC50 (Rev-Erb alpha) [nM]	Emax (Rev-Erb alpha) [%]
COc1ccc(C(=O)c2ccccc2)c(Oc2ccc3nnc(Cl)n3n2)c1 [Cpd.4-144, 3-chloro-6-(2-benzoyl-5-methoxy-phenoxy)-[1,2,4]triazolo[4,3-b]pyridazine]	175 to 176	100 to 1000	–
O=C(c1ccccc1)c1cc(Br)ccc1Oc1ccc2nnc(Cl)n2n1 [Cpd.4-145, 3-chloro-6-(4-bromo-2-benzoyl-phenoxy)-[1,2,4]triazolo[4,3-b]pyridazine]	135 to 137	1000 to 6000	–
Clc1ccc(Oc2ccc3nnc(Cl)n3n2)c(Cc2ccccc2)c1 [Cpd.4-146, 6-(2-benzyl-4-chloro-phenoxy)-3-chloro-[1,2,4]triazolo[4,3-b]pyridazine]	161 to 162	100 to 1000	–
Fc1ccc(Oc2ccc3nnc(Cl)n3n2)c(-c2cccc(C(F)(F)F)c2)c1 [Cpd.4-148, 3-chloro-6-(5-fluoro-3′-(trifluoromethyl)biphenyl-2-yloxy)-[1,2,4]triazolo[4,3-b]pyridazine]	94.5 to 96.1	1000 to 6000	–
COc1cccc(-c2cc(F)ccc2Oc2ccc3nnc(C(F)(F)F)n3n2)c1 [Cpd.4-149, 3-(trifluoromethyl)-6-(5-fluoro-3′-methoxybiphenyl-2-yloxy)-[1,2,4]triazolo[4,3-b]pyridazine]	73.7 to 76.9	1000 to 6000	–
COc1cccc(-c2cc(F)c(F)cc2Oc2ccc3nnc(C(F)(F)F)n3n2)c1 [Cpd.4-150, 3-(trifluoromethyl)-6-(4,5-difluoro-3′-methoxybiphenyl-2-yloxy)-[1,2,4]triazolo[4,3-b]pyridazine]	52 to 55	1000 to 6000	–
Oc1cccc(-c2cc(F)c(F)cc2Oc2ccc3nnc(C(F)(F)F)n3n2)c1 [Cpd.4-151, 3-(trifluoromethyl)-6-(4,5-difluoro-3′-hydroxybiphenyl-2-yloxy)-[1,2,4]triazolo[4,3-b]pyridazine]	193 to 195	1000 to 6000	–
COc1cccc(-c2cc(F)c(F)cc2Oc2ccc3nnc(Cl)n3n2)c1 [Cpd.4-152, 3-chloro-6-(4,5-difluoro-3′-methoxybiphenyl-2-yloxy)-[1,2,4]triazolo[4,3-b]pyridazine]	102	1000 to 6000	–
N#Cc1ccc(Oc2ccc3nnc(Cl)n3n2)c(-c2ccccc2)c1 [Cpd.4-154, 3-chloro-6-(5-cyanobiphenyl-2-yloxy)-[1,2,4]triazolo[4,3-b]pyridazine]	208 to 209	1000 to 6000	–
Clc1nnc2ccc(Oc3ccc(CN4CCCCC4)cc3-c3ccccc3)nn12 [Cpd.4-156, 3-chloro-6-(5-piperidin-1-ylmethylbiphenyl-2-yloxy)-[1,2,4]triazolo[4,3-b]pyridazine]	70 to 70.4	> 6000	> 130
Clc1nnc2ccc(Oc3ccc(CNC4CC4)cc3-c3ccccc3)nn12 [Cpd.4-161, 3-chloro-6-(5-(cyclopropylaminomethyl)biphenyl-2-yloxy)-[1,2,4]triazolo[4,3-b]pyridazine]	62.2 to 64.9	1000 to 6000	–
Clc1nnc2ccc(Oc3ccc(CNCC4CCCCC4)cc3-c3ccccc3)nn12 [Cpd.4-162, 3-chloro-6-(5-((cyclohexylmethyl)aminomethyl)biphenyl-2-yloxy)-[1,2,4]triazolo[4,3-b]pyridazine]	53.4 to 55.7	1000 to 6000	–
CC(C)N(Cc1ccc(Oc2ccc3nnc(Cl)n3n2)c(-c2ccccc2)c1)C(C)C [Cpd.4-166, 3-chloro-6-(5-(diisopropylaminomethyl)biphenyl-2-yloxy)-[1,2,4]triazolo[4,3-b]pyridazine]	59.1	1000 to 6000	–
CC(C)CCNc1ccc(-c2ccccc2)c(Oc2ccc3nnc(Cl)n3n2)c1 [Cpd.4-175, 3-chloro-6-(4-((3-methylbutyl)amino)biphenyl-2-yloxy)-[1,2,4]triazolo[4,3-b]pyridazine]	145 to 150	100 to 1000	–
Clc1nnc2ccc(Oc3cc(CN4CCCCC4)ccc3-c3ccccc3)nn12 [Cpd.4-183, 3-chloro-6-(4-piperidin-1-ylmethylbiphenyl-2-yloxy)-[1,2,4]triazolo[4,3-b]pyridazine]	163 to 164	1000 to 6000	–
CCN(CC)Cc1ccc(-c2ccccc2)c(Oc2ccc3nnc(Cl)n3n2)c1 [Cpd.4-184, 3-chloro-6-(4-diethylaminomethylbiphenyl-2-yloxy)-[1,2,4]triazolo[4,3-b]pyridazine]	110 to 112	1000 to 6000	–

Reference: US9586963B2 (GENFIT, priority 2011, dated 2017)
